# Results as given in US8168391B2, “Method for modulating insulin production” (Burnham Institute for Medical Research, priority 2007, dated 2012).
# Where a name gives a salt, the structure may show the parent alone.
# Test system: insulin promoter
# Test: HTS insulin promoter/eGFP reporter screen in T6PNE cells (absence of fatty acid)
# Type: cell-based, human
# Settings: ChemBridge DiverSet library screen as in Example 2
# Description: A library of 1000 candidate drug compounds was initially screened using NEPCs cultured in a 384-well HTS format using the following method. NEPCs were infected with promoter/reporter constructs in suspension for 6 hours. The cells were then directly plated on Collagen I coated 384-well microtiter plates in media containing 10% plasma. Monolayer formation was allowed to progress by culture for 4 days with regular media changes. Library compounds were then contacted with the cells and added at a final concentration of 5 μM and incubated for 48 hours. Image analysis was then performed using fluorescent microscopy using DAPI […] and imaging of GFP to determine promoter activation activity of individual compounds. Image analysis algorithms are further refined to eliminate auto-fluorescent debris to accurately quantify green fluorescence. The assays employ a cell line derived from human fetal islet cells ([…]) in which the cells are infected with a promoter/reporter construct. The construct is shown in FIG. 7 and incorporates an insulin promoter operably linked to an eGFP. Cells were infected and plated, and candidate libraries screened and “hit” detected as discussed in Example 1. To differentiate between agents that specifically act to reverse lipotoxicity as compared to generally increasing transcription of insulin a two layer screening approach was utilized. In the first layer, islet cells infected with an insulin promoter/reporter construct are screened in the absence of a fatty acid. A “hit” indicates an agent that is capable of increasing insulin transcription. In the second layer, islet cells infected with an insulin promoter/reporter construct are screened in the presence of a fatty acid. A “hit” indicates a drug that reverses the effects of the fatty acid addition, for example reduction of insulin transcription. This drugs screened in both layers may be used to identify whether the drug is specific to lipotoxicity reversal. For example, drugs that are “hits” in the second layer screen but not in the first layer screen are specific to lipotoxicity reversal. […]
row,SMILES,upregulation of the insulin promoter
1,NCCc1ccc(O)c(O)c1 [dopamine],upregulated the insulin promoter

# Same assay, conditions: repeat of initial screen with dose response; T6PNE cells, insulin promoter-eGFP
row,SMILES,activator of insulin promoter confirmed in confirmatory screen
1,CN(C)CCCN1c2ccccc2Sc2ccc(Cl)cc21 [chlorpromazine],confirmed
2,CCN(CC)C(C)CN1c2ccccc2Sc2ccccc21 (stereo not drawn) [ethopropazine],confirmed

# Test system: insulin promoter
# Test: Insulin promoter/reporter screen in the presence of a fatty acid (reversal of palmitate-induced lipotoxicity)
# Type: cell-based, human
# Settings: screen in presence of fatty acid (FIG. 20) vs not in presence (FIG. 19)
# Description: The assays employ a cell line derived from human fetal islet cells (T6PNE) in which the cells are infected with a promoter/reporter construct. The construct is shown in FIG. 7 and incorporates an insulin promoter operably linked to an eGFP. Cells were infected and plated, and candidate libraries screened and “hit” detected as discussed in Example 1.
# To differentiate between agents that specifically act to reverse lipotoxicity as compared to generally increasing transcription of insulin a two layer screening approach was utilized. In the first layer, islet cells infected with an insulin promoter/reporter construct are screened in the absence of a fatty acid. A “hit” indicates an agent that is capable of increasing insulin transcription. In the second layer, islet cells infected with an insulin promoter/reporter construct are screened in the presence of a fatty acid. A “hit” indicates a drug that reverses the effects of the fatty acid addition, for example reduction of insulin transcription. This drugs screened in both layers may be used to identify whether the drug is specific to lipotoxicity reversal. For example, drugs that are “hits” in the second layer screen but not in the first layer screen are specific to lipotoxicity reversal.
row,SMILES,reversal of palmitate-induced lipotoxicity
1,CC(=O)Oc1c(C)c(C)c2c(c1C)CCC(C)(CCC[C@H](C)CCC[C@H](C)CCCC(C)C)O2 (stereo partly drawn) [alpha-tocopheryl acetate],expected to reverse lipotoxicity
2,CC(Cc1cccc(C(F)(F)F)c1)NCCOC(=O)c1ccccc1 (stereo not drawn) [benfluorex hydrochloride],expected to reverse lipotoxicity
3,CC1=C(/C=C/C(C)=C/C=C/C(C)=C/C=C/C=C(C)/C=C/C=C(C)/C=C/C2=C(C)CCCC2(C)C)C(C)(C)CCC1 [beta-carotene],expected to reverse lipotoxicity
4,Clc1ccc(C(OCCN2CCCCC2)c2ccccc2)cc1 (stereo not drawn) [cloperastine hydrochloride],expected to reverse lipotoxicity
5,CC[C@H](C)C(=O)O[C@H]1C[C@@H](C)C=C2C=C[C@H](C)[C@H](CC[C@@H]3C[C@@H](O)CC(=O)O3)[C@H]21 [lovastatin],expected to reverse lipotoxicity
6,Cc1cccc(Nc2ccccc2C(=O)O)c1C [mefenamic acid],expected to reverse lipotoxicity
